Test results published in PubChem BioAssay AID2060500 (Molecular Pharmacology Branch, DTP, NCI, 2025).

System: 596521-263-R-J1-PDC complex spheroids, viability % of control
Experiment: Anticancer human tumor 596521-263-R-J1-PDC patient-derived soft tissue sarcoma cell line growth inhibition [GQUAD]
Conditions: for IC50: curve of first compound; for viability, T/C: stronger effect = lower value
How it was run: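 Viability of tumor cells grown as complex spheroids with endothelial and stromal cells, exposed to drug combinations. Top concentration at or near clinical Cmax (else 10 microM), diluted in half-log increments.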
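Also: spheroids exposed to drugs for 7 days before viability reading.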
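For viability, T/C in this document: 100% = DMSO vehicle control viability.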

SMILES: CC1COCCN1c1cc(-c2ccnn2C)c2ccnc(-c3ccn[nH]3)c2n1 (configuration not stated) + CN(C)c1ccc(Nc2c3ccc(NC(=O)CCN4CCCC4)cc3nc3cc(NC(=O)CCN4CCCC4)ccc23)cc1
- IC50 (second compound 0.0316 µM): 206 nM
- IC50 (second compound 0.1 µM): 301 nM
- IC50 (second compound 0.316 µM): 366 nM
- IC50 (second compound 1 µM): 449 nM
- IC50 (second compound 3.16 µM): 348 nM
- IC50 (second compound 10 µM): 161 nM
- viability, T/C (second compound 0.0316 µM, first compound 0.0316 µM): 69.3%
- viability, T/C (second compound 0.0316 µM, first compound 0.1 µM): 53.7%
- viability, T/C (second compound 0.0316 µM, first compound 0.316 µM): 44.4%
- viability, T/C (second compound 0.0316 µM, first compound 1 µM): 41.3%
- viability, T/C (second compound 0.0316 µM, first compound 3.16 µM): 29.4%
- viability, T/C (second compound 0.0316 µM, first compound 10 µM): 22.8%
- viability, T/C (second compound 0.1 µM, first compound 0.0316 µM): 81%
- viability, T/C (second compound 0.1 µM, first compound 0.1 µM): 59.2%
- viability, T/C (second compound 0.1 µM, first compound 0.316 µM): 49.5%
- viability, T/C (second compound 0.1 µM, first compound 1 µM): 39.2%
- viability, T/C (second compound 0.1 µM, first compound 3.16 µM): 30.9%
- viability, T/C (second compound 0.1 µM, first compound 10 µM): 21.3%
- viability, T/C (second compound 0.316 µM, first compound 0.0316 µM): 65.6%
- viability, T/C (second compound 0.316 µM, first compound 0.1 µM): 63.4%
- viability, T/C (second compound 0.316 µM, first compound 0.316 µM): 49.9%
- viability, T/C (second compound 0.316 µM, first compound 1 µM): 39.3%
- viability, T/C (second compound 0.316 µM, first compound 3.16 µM): 30.4%
- viability, T/C (second compound 0.316 µM, first compound 10 µM): 21.9%
- viability, T/C (second compound 1 µM, first compound 0.0316 µM): 66.2%
- viability, T/C (second compound 1 µM, first compound 0.1 µM): 63.6%
- viability, T/C (second compound 1 µM, first compound 0.316 µM): 50.2%
- viability, T/C (second compound 1 µM, first compound 1 µM): 45.4%
- viability, T/C (second compound 1 µM, first compound 3.16 µM): 30.6%
- viability, T/C (second compound 1 µM, first compound 10 µM): 25%
- viability, T/C (second compound 3.16 µM, first compound 0.0316 µM): 69.4%
- viability, T/C (second compound 3.16 µM, first compound 0.1 µM): 59.4%
- viability, T/C (second compound 3.16 µM, first compound 0.316 µM): 49.8%
- viability, T/C (second compound 3.16 µM, first compound 1 µM): 43.6%
- viability, T/C (second compound 3.16 µM, first compound 3.16 µM): 31.1%
- viability, T/C (second compound 3.16 µM, first compound 10 µM): 22.9%
- viability, T/C (second compound 10 µM, first compound 0.0316 µM): 55.6%
- viability, T/C (second compound 10 µM, first compound 0.1 µM): 54.8%
- viability, T/C (second compound 10 µM, first compound 0.316 µM): 44.4%
- viability, T/C (second compound 10 µM, first compound 1 µM): 35.5%
- viability, T/C (second compound 10 µM, first compound 3.16 µM): 26.6%
- viability, T/C (second compound 10 µM, first compound 10 µM): 21.9%
